Reference: US20060190192A1, “Databases for assessing nucleic acids” (Medical College of Ohio, priority 2005, published 2006)

What was measured:
[1] = system: cytochrome p450 (CYP) IAI gene; test: MC RT-PCR with Celi competitive templates: induction of CYPIAI gene expression in β-napthoflavone-exposed BEP2D cells; type: cell-based, human; conditions: β-napthoflavone 10 μM, control 0.1% DMSO, cDNA loading matched by GAPDH native/competitive template bands
Procedure: (§1) In a second set of experiments, multiplex competitive reverse transcriptase polymerase chain reaction (MC RT-PCR) with competitive templates were prepared by the Celi method to evaluate the cytochrome p450 (CYP) IAI gene in β-napthoflavone-exposed BEP2D cells. The induction of CYPIAI gene expression was evaluated using both MC RT-PCR with Celi competitive templates, and Northern analysis. Competitive templates were prepared for both the CYPIAI and GAPDH genes. The primers used to prepare the competitive template for GAPDH were: […]
The PCR amplification conditions were the same as described for experiments using the competitive templates prepared for GAPDH and GSHPx by the Higuchi method except the annealing temperature was 55 degrees centigrade and the amplification was carried out for 38 cycles.
Because the native and competitive templates separate without prior restriction endonuclease digestion, samples were taken directly from the PCR reaction tube and applied to ethidium bromide stained 3% Nusieve, 1% LE agarose gels. It was then possible to quantify the products by taking a negative photograph of the gel using Polaroid 665 positive/negative instant film, subjecting the negative photograph to densitometry. […]

[2] = system: cytochrome p450 (CYP) IAI gene; test: Northern analysis of CYPIAI gene expression in β-napthoflavone-exposed BEP2D cells; type: cell-based, human; conditions: β-napthoflavone 10 μM vs 0.1% DMSO control, 32P-labeled CYPIAI cDNA probe
Procedure: as §1
RNA from BEP2D cells incubated for varying times with β-napthoflavone (10 μM) was either electrophoresed on a 1% LE formaldehyde denaturing gel for Northern analysis or MC RT-PCR amplified, as described above. For Northern analysis, following transfer of the RNA to GeneScreen, the filters were hybridized with ^32P-labeled CYPIAI cDNA.
FIG. 36A illustrates Northern analysis of RNA obtained from BEP2D cells that were treated with 0.1% DMSO as a control, or, β-napthoflavone in an effort to induce cytochrome p450 IA1 (CYPIA1). FIG. 36B illustrates DNA PCR-amplified from serial dilutions of cDNA from the same cells used in FIG. 36SA. The cDNA was co-amplified in the presence of competitive templates for GAPDH and CYPIAI, according to some embodiments of the instant invention.

- band representing the native CYPIAI gene, exposed cells compared to control cells [1]: much more strongly represented
- gene expression of the CYPIAI gene [2]: increase
Structure (SMILES): O=c1cc(-c2ccccc2)oc2ccc3ccccc3c12 [β-napthoflavone]
